# Where a SMILES comes first, the peptide text is derived from it. The star is where a group is joined. Cbz = O=C(OCc1ccccc1)*; OtBu = CC(C)(C)O*
# Experiments:
# [1] = biological target: T1, 20S proteasome β2 trypsin-like activity (VGR-MCA) (Homo sapiens, UniProt P49720+Q99436); test: Protease assay, trypsin-like activity of isolated 20S proteasomes; assay type: biochemical; conditions: isolated 20S proteasome; VGR-MCA 50 μM; 15 min pre-incubation; read-out: IC50 β2 Trypsin-like (R)
# T1 construct: Proteasomes were isolated from red blood cells; from tissue; host or cells: red blood cells
# Procedure: (§1) Proteasomes were isolated from red blood cells. Cells were lysed with DTT (1 mM), and the stroma-free supernatant was loaded on DEAE-sepharose (Toyopearls). Proteasome was eluted with an NaCl-gradient in TEAD (20 mM TrisCl pH 7.4, 1 mM EDTA, 1 mM azide, 1 mM DTT) of 100 to 300 mM NaCl. Proteasome was concentrated using ammonium sulfate-precipitation (between 40 and 70% saturation) and was separated in a 10-40% sucrose-gradient through centrifugation at 40.000 rpm for 16 hours (SW40; L7, Beckman & Coulter). Finally, the proteasomes were purified on a MonoQ-column and eluted with an NaCl-gradient at about 280 mM NaCl. The fractions containing purified proteasome were dialysed against 50 mM NaCl in TEAD and stored on ice. The purity was determined using SDS-PAGE.
# (§2) Suc-LLVY-AMC, Z-VGR-AMC and LLE-AMC (BACHEM, Calbiochem) was used, in order to determine the chymotrypsin-like, trypsin-like or caspase-like (post-acidic)-activities of the proteasome. Substrate was incubated with proteasome at 37° C. in assay-buffer (20 mM Tris/Cl, pH 7.2, 1 mM EDTA, 1 mM DTT) for one hour. 100 ng proteasome was pre-incubated with 0.01-10 μM of the inhibitor for […]. The reaction was started by the addition of substrate (50 μM). The AMC as released was detected using fluorescence emission at 460 nm (excitation at 390 nm) using a TECAN-fluorimeter. The activity was calculated in fluorescence-units. The inhibition is depicted by IC50-values.
# (§3) The effects thereof were compared with the one of the commonly used proteasomal inhibitor 3 (MG132). The chymotrypsin-like (Suc-LLVY-AMC), the trypsin-like (Bz-VGR-AMC), and the caspase-like (Z-LLE-AMC)-activities of 20S proteasomes were determined following incubation for one hour at 37° C.
# (§4) The IC50-values form the inhibition of the proteasome were calculated at increasing concentrations of the inhibitor. The samples were pre-incubated for 15 min in ice. The assay was started through the addition of 50 μM of one of the following fluorogenic peptide substrates:
# (§5) The release of MCA was determined at 460 nm emission (excitation 390 nm). The IC50-values as calculated for MG132 served as controls.
# [2] = biological target: T2, 20S proteasome β1 caspase-like activity (LLE-MCA) (Homo sapiens, UniProt P28072+Q99436); test: Protease assay, caspase-like activity of isolated 20S proteasomes; assay type: biochemical; conditions: isolated 20S proteasome; LLE-MCA 50 μM; 15 min pre-incubation; read-out: IC50 β1 Caspase-like (E)
# T2 construct: Proteasomes were isolated from red blood cells; from tissue; host or cells: red blood cells
# Procedure: as §1, §2, §3, §4, §5
# 20S proteasome = system: T3, 20S proteasome; test: Inhibition of the different proteasomal activities, summary statements; assay type: biochemical; conditions: for which proteasomal activities are inhibited (site selectivity): isolated proteasomes, specific substrates
# T3 construct: Proteasomes were isolated from red blood cells; from tissue; host or cells: red blood cells
# Procedure: The specific inhibition of a single catalytic site is of specific interest for the development of drugs. Thus, the inhibition of the different proteasomal activities of the proteasome was analysed (see also example 6). The different cleavage-preferences of the proteasome were determined by the specific substrate for the hydrophobic (chymotrypsin-like), the trypsine-like and the caspase-like activities of isolated proteasomes.
# as §2, §3
# [3] = system: poly-ubiquitinylated proteins in HeLa-cells; test: Accumulation of poly-ubiquitinylated proteins, Western blot; assay type: cell-based; conditions: 1 μM for compound 15
# Procedure: A, HeLa-cells were cultivated were 24 hours in the presence of the inhibitor. The protein concentration was determined in accordance with the cellular lysis according to Bradford in order to normalise the proteasomal activities to the different amounts of cells. Subsequently Complete (Roche) was added to all lysates, and the proteasomal activity was determined through the hydrolysis of Suc-LLVY-AMC. B, HeLa-cells was incubated with 1 μM of compound 15 for 2, 4, 6 and 24 hours. Cells were lysed, and proteins were separated through SDS-PAGE on a 10% gel, blotted to a PVDF-membrane. The accumulation of the poly-ubiquitinylated proteins was detected in a Western blot by an anti-ubiquitine-antibody (DAKO). C, HeLa-Cells were treated with increasing concentrations of the inhibitor 15, 25, 26, 27, and 28 for 24 hours (lane 1: without inhibitor; lane 2: 10 nM; lane 3: 100 nM and lane 4: 1 μM of the given inhibitor). Cells were lysed, proteins were separated on 15% gels, and the accumulation of the poly-ubiquitinylated proteins was controlled through Western blot.
# A specific inhibition of the proteasome lead to an accumulation of poly-ubiquitinylated proteins. Indeed, the amount of poly-ubiquitinylated proteins increased during the incubation with the inhibitors. First effects were observed after 2 hours, for compound 15 (FIG. 6B) as well as for compounds 20, 22, 25 and 28 (data not shown).
# 50 μg of whole-cell-lysate were separated by SDS-PAGE, and blottet onto a PVDF-membrane (Millipore). The blots were blocked by means of a 5% milk-suspension. The poly-ubiquitinylated proteins were detected by anti-ubiquitin-antibody (DAKO), and anti-rabbit, POD-labelled, as a secondary antibody (DIANOVA), and visualized through ECL.
# [4] = system: Human melanoma cells (MeWo); test: Viability of human melanoma cells (MeWo), crystal violet-staining; assay type: cell-based; conditions: 72 h
# Procedure: A, Human melanoma cells (MeWo) were treated with increasing concentrations of the compounds 15 or 3 (MG132) for 72 hours. The viability of the cells after the treatment with compound 15 (-♦-) and with MG132 (-□-) was detected by a crystal-violet-staining. B and C, MeWo cells were co-cultivated with the compounds 15 and 3 (MG132) for 24 hours. The cells were subsequently fixed in 70% ethanol, and treated with RNAse A. The DNA was stained with propidium iodide (5 μg/ml), and analysed by means of FACS (FACS Calibur flow cytometer; Beckton Dickinson). The statistical significance was detected by the chi-square-test. The relative distribution of the cells that were present in the G1-(black), in the S-(white) or in the G2 phase (hatched) of the cellular cycle is shown for both compounds as examined (15 in B and MG132 in C).
# Human melanoma cells (MeWo) were incubated for 72 h with different concentrations of the inhibitor 15 and 28, and the viability of the cells was determined by means of crystal violet-staining (FIG. 8).
IC50 [1],IC50 [2],"IC50 (20S proteasome; proteasomal activity not given, read-out: IC50-values of the most potent inhibitors)",SMILES,which proteasomal activities are inhibited (site selectivity) (20S proteasome),first effects on accumulation of poly-ubiquitinylated proteins observed after [3],sensitivity of tumour cells [4],"IC50 ([4]; Homo sapiens, read-out: concentration at rate of survival of 50% of the cells)"
155 nM,1790 nM,< 60 nM,"CC(C)CC(C=O)NC(=O)C(CC(=O)OC(C)(C)C)NC(=O)C(CC(C)C)NC(=O)OCc1ccccc1 (stereo not drawn) [Compound 15, Z-Leu-Asp(O^tBu)Leu-CHO] (Cbz-Leu-Asp(OtBu)-Leu-aldehyde; configuration not given here)",inhibited all of the proteasomal hydrolytic activities,2 h,increased sensitivity of tumour cells,15 nM
–,> 10000 nM,–,CC(C)C[C@H](NC(=O)OCc1ccccc1)C(=O)N[C@@H](CC(C)C)C(=O)N[C@@H](CC(C)C)C(=O)C(=O)Nc1ccccc1 [Compound 28],exclusive reduction of the chymotryptic activity,2 h,increased sensitivity of tumour cells,–
